Laboratory results published in ChEMBL document CHEMBL4028801, “A multifactorial approach to hepatobiliary transporter assessment enables improved therapeutic compound development” (Toxicol Sci, 2013).

Assays:
[1] = biological target: T1, ATP-binding cassette sub-family C member 4 (Homo sapiens, UniProt O15439); assay: Inhibition of human MRP4 overexpressed in Sf9 cell membrane vesicles assessed as uptake of [3H]-estradiol-17beta-D-glucuronide in presence of ATP and GSH measured after 20 mins by membrane vesicle transport assay; format: ADME, cell-based
T1 sequence (O15439 whole entry): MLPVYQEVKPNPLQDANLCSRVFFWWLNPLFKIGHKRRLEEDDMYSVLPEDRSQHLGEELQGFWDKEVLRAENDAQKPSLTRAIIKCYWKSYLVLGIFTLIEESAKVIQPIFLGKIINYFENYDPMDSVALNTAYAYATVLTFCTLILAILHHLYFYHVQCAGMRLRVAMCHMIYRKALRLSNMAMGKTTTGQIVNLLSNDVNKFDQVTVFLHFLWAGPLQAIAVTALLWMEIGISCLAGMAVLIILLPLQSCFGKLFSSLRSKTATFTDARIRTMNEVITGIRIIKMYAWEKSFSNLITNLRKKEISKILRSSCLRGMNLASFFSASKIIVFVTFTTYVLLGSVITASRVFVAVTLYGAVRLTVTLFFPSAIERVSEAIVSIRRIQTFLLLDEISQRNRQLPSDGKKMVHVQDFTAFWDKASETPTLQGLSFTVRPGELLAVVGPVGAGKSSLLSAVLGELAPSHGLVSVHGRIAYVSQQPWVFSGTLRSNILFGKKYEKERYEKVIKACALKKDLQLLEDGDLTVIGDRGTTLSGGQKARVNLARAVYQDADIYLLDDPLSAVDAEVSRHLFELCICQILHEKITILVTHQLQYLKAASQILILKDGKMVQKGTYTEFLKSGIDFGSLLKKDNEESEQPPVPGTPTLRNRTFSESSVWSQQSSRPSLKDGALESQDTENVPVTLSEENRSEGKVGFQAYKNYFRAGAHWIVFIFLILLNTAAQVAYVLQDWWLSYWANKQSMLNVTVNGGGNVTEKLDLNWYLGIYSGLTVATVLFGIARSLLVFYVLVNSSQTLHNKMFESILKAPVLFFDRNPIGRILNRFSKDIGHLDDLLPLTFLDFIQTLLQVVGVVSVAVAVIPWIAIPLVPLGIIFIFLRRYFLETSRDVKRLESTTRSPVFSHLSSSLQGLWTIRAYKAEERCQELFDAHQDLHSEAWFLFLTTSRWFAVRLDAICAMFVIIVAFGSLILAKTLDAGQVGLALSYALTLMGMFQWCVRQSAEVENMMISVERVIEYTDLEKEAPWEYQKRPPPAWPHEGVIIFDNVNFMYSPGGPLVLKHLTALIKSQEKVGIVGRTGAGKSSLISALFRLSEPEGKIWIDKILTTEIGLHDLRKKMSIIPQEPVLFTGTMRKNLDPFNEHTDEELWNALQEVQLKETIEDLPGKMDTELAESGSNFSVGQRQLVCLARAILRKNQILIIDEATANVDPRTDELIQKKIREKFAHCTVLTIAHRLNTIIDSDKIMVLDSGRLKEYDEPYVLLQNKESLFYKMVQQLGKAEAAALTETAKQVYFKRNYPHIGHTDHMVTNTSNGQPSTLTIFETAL

[2] = AUC in human at 800 mg, po TID after 8 hrs; format: ADME, organism-based; parameters: dose 800 mg, time < 8 hr, route oral; conditions: in vivo
[3] = Ratio of drug concentration at steady state in human at 800 mg, po TID after 8 hrs to IC50 for human BSEP overexpressed in Sf9 insect cells; format: ADME, organism-based; conditions: in vivo
[4] = Ratio of drug concentration at steady state in human at 800 mg, po TID after 8 hrs to IC50 for human MRP3 overexpressed in Sf9 insect cells; format: ADME, organism-based; conditions: in vivo
[5] = biological target: ATP-binding cassette sub-family C member 2 (Homo sapiens, UniProt Q92887); assay: Inhibition of human MRP2 overexpressed in Sf9 cell membrane vesicles assessed as uptake of [3H]-estradiol-17beta-D-glucuronide in presence of ATP and GSH measured after 20 mins by membrane vesicle transport assay
[6] = biological target: ATP-binding cassette sub-family C member 3 (Homo sapiens, UniProt O15438); assay: Inhibition of human MRP3 overexpressed in Sf9 insect cell membrane vesicles assessed as uptake of [3H]-estradiol-17beta-D-glucuronide in presence of ATP and GSH measured after 10 mins by membrane vesicle transport assay; format: ADME, cell-based
[7] = Drug concentration at steady state in human at 800 mg, po TID after 8 hrs; format: ADME, organism-based; conditions: in vivo, read-out: Css
[8] = AUC in human at 400 to 1200 mg, po TID after 8 hrs; format: ADME, organism-based; conditions: in vivo
[9] = Drug concentration at steady state in human at 400 to 1200 mg, po TID after 8 hrs; format: ADME, organism-based; conditions: in vivo, read-out: Css
[10] = Ratio of drug concentration at steady state in human at 150 to 600 mg, iv QD after 24 hrs to IC50 for human BSEP overexpressed in Sf9 insect cells; format: ADME, organism-based; conditions: in vivo
[11] = Drug concentration at steady state in human at 150 to 600 mg, iv QD after 24 hrs; format: ADME, organism-based; conditions: in vivo, read-out: Css
[12] = Ratio of drug concentration at steady state in human at 150 to 600 mg, iv QD after 24 hrs to IC50 for human MRP3 overexpressed in Sf9 insect cells; format: ADME, organism-based; conditions: in vivo
[13] = AUC in human at 150 to 600 mg, iv QD after 24 hrs; format: ADME, organism-based; conditions: in vivo
[14] = Ratio of drug concentration at steady state in human at 150 to 600 mg, iv QD after 24 hrs to IC50 for human MRP4 overexpressed in Sf9 insect cells; format: ADME, organism-based; conditions: in vivo
[15] = Ratio of drug concentration at steady state in human at 150 to 600 mg, iv QD after 24 hrs to IC50 for human MRP2 overexpressed in Sf9 insect cells; format: ADME, organism-based; conditions: in vivo
[16] = AUC in human at 400 to 600 mg, po QD after 24 hrs; format: ADME, organism-based; conditions: in vivo
[17] = Drug concentration at steady state in human at 400 to 600 mg, po QD after 24 hrs; format: ADME, organism-based; conditions: in vivo, read-out: Css
Bile salt export pump = Bile salt export pump (Homo sapiens, UniProt O95342); assay: Inhibition of human BSEP overexpressed in Sf9 cell membrane vesicles assessed as uptake of [3H]-taurocholate in presence of ATP measured after 15 to 20 mins by membrane vesicle transport assay; format: ADME, cell-based
[18] = Ratio of drug concentration at steady state in human at 400 mg, po BID for 5 to 10 days after 12 hrs to IC50 for human MRP4 overexpressed in Sf9 insect cells; format: ADME, organism-based; conditions: in vivo
[19] = Drug concentration at steady state in human at 400 mg, po BID for 5 to 10 days after 12 hrs; format: ADME, organism-based; conditions: in vivo, read-out: Css
[20] = Ratio of drug concentration at steady state in human at 400 mg, po BID for 5 to 10 days after 12 hrs to IC50 for human BSEP overexpressed in Sf9 insect cells; format: ADME, organism-based; conditions: in vivo
[21] = AUC in human at 400 mg, po BID for 5 to 10 days after 12 hrs; format: ADME, organism-based; parameters: dose 400 mg, time < 12 hr, route oral; conditions: in vivo

ATP-binding cassette sub-family C member 3, sequence (O15438 whole entry): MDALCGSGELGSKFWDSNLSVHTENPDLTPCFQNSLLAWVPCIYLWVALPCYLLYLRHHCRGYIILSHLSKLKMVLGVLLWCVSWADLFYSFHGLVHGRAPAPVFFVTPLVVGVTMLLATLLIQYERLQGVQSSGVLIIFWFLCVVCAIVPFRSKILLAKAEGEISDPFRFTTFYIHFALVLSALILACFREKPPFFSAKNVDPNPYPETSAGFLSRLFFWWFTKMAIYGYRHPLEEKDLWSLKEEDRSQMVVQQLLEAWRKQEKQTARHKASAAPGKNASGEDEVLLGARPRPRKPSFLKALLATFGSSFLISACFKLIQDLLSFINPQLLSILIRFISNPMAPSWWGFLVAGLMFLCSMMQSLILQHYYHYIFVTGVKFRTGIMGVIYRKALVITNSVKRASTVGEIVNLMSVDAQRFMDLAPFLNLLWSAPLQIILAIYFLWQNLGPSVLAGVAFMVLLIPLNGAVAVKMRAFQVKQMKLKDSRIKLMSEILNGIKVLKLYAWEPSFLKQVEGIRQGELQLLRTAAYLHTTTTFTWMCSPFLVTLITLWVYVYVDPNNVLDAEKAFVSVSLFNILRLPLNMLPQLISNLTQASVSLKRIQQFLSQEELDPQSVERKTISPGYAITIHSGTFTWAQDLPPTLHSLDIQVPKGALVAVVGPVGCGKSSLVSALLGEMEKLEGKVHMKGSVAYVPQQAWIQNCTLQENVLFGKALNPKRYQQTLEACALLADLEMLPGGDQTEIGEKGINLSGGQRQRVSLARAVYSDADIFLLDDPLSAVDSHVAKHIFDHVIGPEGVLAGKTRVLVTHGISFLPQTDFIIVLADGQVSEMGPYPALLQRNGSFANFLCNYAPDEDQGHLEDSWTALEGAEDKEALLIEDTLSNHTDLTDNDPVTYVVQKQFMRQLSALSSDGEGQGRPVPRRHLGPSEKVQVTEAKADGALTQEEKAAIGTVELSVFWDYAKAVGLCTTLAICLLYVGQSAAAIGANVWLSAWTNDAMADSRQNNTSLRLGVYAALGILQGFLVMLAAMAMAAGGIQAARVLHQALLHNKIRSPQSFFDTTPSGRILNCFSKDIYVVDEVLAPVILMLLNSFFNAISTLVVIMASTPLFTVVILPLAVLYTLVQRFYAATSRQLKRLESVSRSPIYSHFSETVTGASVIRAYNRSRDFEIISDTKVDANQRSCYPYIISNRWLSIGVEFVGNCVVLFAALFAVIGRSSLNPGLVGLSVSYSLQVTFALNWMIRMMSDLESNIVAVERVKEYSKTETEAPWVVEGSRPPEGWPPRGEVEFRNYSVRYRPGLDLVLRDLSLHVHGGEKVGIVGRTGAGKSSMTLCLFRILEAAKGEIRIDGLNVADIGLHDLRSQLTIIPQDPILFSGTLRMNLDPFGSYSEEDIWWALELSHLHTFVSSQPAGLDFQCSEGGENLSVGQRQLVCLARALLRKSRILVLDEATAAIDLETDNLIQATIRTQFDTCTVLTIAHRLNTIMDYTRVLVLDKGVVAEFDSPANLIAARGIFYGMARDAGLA
ATP-binding cassette sub-family C member 2, sequence (Q92887 whole entry): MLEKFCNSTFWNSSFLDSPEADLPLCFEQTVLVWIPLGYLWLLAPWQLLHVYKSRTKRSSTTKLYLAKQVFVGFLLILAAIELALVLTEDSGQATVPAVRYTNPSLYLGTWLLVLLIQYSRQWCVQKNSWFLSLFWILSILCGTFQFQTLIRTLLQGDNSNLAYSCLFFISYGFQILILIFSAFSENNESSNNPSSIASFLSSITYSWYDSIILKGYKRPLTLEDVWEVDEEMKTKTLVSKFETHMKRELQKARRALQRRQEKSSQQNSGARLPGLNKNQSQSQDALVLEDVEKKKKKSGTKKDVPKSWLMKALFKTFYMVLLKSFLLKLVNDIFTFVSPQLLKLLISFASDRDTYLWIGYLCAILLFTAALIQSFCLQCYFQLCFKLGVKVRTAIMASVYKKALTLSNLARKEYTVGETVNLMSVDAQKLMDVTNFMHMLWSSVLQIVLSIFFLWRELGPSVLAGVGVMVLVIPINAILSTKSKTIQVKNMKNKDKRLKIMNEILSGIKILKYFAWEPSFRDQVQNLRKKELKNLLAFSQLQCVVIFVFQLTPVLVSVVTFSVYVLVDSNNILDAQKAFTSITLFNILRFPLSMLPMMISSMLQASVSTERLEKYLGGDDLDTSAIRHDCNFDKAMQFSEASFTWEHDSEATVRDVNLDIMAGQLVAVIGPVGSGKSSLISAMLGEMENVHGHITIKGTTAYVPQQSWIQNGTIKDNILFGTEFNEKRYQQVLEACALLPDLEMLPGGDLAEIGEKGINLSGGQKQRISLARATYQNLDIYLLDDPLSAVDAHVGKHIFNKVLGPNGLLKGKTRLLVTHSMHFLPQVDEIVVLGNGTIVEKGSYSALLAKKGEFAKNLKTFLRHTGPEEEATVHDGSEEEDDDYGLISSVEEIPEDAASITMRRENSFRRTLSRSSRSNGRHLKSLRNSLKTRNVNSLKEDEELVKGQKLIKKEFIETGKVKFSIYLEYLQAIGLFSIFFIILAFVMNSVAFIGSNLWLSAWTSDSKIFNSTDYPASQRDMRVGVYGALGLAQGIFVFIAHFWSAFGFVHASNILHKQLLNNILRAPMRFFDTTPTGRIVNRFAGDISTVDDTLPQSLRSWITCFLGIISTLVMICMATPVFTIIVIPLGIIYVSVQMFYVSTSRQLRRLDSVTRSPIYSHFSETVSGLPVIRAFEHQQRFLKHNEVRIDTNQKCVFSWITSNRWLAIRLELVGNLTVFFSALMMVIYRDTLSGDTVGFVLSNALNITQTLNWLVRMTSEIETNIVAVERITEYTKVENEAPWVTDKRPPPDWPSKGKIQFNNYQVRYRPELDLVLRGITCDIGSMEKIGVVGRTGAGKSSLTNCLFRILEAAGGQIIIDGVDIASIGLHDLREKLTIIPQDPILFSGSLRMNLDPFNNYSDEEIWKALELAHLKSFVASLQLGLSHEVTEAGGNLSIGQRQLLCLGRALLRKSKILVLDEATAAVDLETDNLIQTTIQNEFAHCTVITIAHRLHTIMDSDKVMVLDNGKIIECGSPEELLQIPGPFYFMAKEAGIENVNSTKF
Bile salt export pump, sequence (O95342 whole entry): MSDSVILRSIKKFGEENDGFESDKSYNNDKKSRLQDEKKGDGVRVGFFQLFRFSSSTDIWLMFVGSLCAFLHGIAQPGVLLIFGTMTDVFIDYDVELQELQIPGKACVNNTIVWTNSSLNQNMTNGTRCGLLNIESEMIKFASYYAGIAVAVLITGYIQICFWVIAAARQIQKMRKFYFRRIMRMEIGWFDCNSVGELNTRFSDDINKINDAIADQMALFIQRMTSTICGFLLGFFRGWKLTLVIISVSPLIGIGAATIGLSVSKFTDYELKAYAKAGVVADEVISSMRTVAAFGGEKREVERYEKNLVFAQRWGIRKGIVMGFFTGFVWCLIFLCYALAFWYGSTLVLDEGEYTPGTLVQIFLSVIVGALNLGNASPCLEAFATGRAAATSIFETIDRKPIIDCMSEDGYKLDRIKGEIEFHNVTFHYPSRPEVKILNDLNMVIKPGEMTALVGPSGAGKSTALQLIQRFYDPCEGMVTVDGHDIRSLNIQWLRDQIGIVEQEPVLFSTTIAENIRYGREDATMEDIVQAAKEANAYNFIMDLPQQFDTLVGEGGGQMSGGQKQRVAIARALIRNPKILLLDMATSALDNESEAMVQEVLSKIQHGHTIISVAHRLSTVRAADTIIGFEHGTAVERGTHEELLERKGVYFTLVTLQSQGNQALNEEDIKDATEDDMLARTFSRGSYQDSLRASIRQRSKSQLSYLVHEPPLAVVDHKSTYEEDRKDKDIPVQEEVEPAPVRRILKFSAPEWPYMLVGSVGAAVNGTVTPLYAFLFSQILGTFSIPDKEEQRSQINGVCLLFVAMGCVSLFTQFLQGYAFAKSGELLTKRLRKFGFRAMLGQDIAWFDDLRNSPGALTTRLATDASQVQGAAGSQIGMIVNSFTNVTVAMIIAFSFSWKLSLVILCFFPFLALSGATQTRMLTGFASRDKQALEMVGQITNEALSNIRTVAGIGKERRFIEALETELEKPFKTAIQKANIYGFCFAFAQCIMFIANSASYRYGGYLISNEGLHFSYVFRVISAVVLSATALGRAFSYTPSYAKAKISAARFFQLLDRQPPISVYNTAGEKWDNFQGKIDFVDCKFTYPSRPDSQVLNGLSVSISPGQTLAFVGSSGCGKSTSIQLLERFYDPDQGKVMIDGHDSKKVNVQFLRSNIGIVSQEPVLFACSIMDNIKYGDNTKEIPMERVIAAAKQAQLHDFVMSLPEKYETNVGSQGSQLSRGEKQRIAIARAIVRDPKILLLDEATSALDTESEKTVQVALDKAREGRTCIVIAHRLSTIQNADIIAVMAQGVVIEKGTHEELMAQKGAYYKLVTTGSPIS

Question: With `CC(C)(C)NC(=O)[C@@H]1CN(Cc2cccnc2)CCN1C[C@@H](O)C[C@@H](Cc1ccccc1)C(=O)N[C@H]1c2ccccc2C[C@H]1O.O` as the compound, how does the IC50 [1] read?
Answer: Its IC50 is greater than 133 µM.

Question: What about the AUC at 8 h [2] of the same compound?
Answer: The AUC at 8 h was 45.1 µM·h.

Question: And the Ratio [3]?
Answer: The Ratio was 0.266.

Question: What about the Ratio [4] of the same compound?
Answer: The Ratio was 0.068.

Question: And the IC50 [5]?
Answer: The IC50 was greater than 133 µM.

Question: And the IC50 [6]?
Answer: The IC50 was 83 µM.

Question: And the concentration at 8 h [7]?
Answer: Its concentration at 8 h is 5.64 µM.

Question: For `CC(C)(C)NC(=O)[C@@H]1C[C@@H]2CCCC[C@@H]2CN1C[C@@H](O)[C@H](Cc1ccccc1)NC(=O)[C@H](CC(N)=O)NC(=O)c1ccc2ccccc2n1`, which IC50 [1] is on record?
Answer: The IC50 was 59 µM.

Question: What about the AUC at 8 h [8] of the same compound?
Answer: The AUC at 8 h was 9.69 µM·h.

Question: And the concentration at 8 h [9]?
Answer: Its concentration at 8 h is 1.21 µM.

Question: And the IC50 [5]?
Answer: Its IC50 is greater than 133 µM.

Question: What about the IC50 [6] of the same compound?
Answer: The IC50 was 42 µM.

Question: Which results are given for `CO[C@H]1/C=C/O[C@@]2(C)Oc3c(C)c(O)c4c(O)c(c(/C=N/N5CCN(C)CC5)c(O)c4c3C2=O)NC(=O)/C(C)=C\C=C\[C@H](C)[C@H](O)[C@@H](C)[C@@H](O)[C@@H](C)[C@H](OC(C)=O)[C@@H]1C` [RIFAMPIN]?
Answer: IC50 [1]: 41.9 µM; Ratio [10]: 0.147; concentration at 24 h [11]: 3.73 µM; Ratio [12]: 0.054; AUC at 24 h [13]: 89.4 µM·h; Ratio [14]: 0.089; IC50 [5]: 53 µM; IC50 [6]: 69 µM; Ratio [15]: 0.07

Question: Which IC50 [1] does the source give for `Cc1ccc(NC(=O)c2ccc(CN3CCN(C)CC3)cc2)cc1Nc1nccc(-c2cccnc2)n1` [IMATINIB] here?
Answer: The IC50 was greater than 133 µM.

Question: What about the AUC at 24 h [16] of the same compound?
Answer: The AUC at 24 h was 106 µM·h.

Question: And the IC50 [5]?
Answer: Its IC50 is greater than 133 µM.

Question: And the IC50 [6]?
Answer: The IC50 was greater than 133 µM.

Question: What about the concentration at 24 h [17] of the same compound?
Answer: The concentration at 24 h was 4.41 µM.

Question: With `CC[C@H]1OC(=O)[C@H](C)C(=O)[C@H](C)[C@@H](O[C@@H]2O[C@H](C)C[C@H](N(C)C)[C@H]2O)[C@](C)(OC)C[C@@H](C)C(=O)[C@H](C)[C@H]2N(CCCCn3cnc(-c4cccnc4)c3)C(=O)O[C@]12C` [TELITHROMYCIN] as the compound, how does the IC50 [1] read?
Answer: The IC50 was 7.1 µM.

Question: What about the IC50 (Bile salt export pump) of the same compound?
Answer: Its IC50 is 5 µM.

Question: What about the Ratio [18] of the same compound?
Answer: The Ratio was 0.136.

Question: And the concentration at 12 h [19]?
Answer: Its concentration at 12 h is 0.964 µM.

Question: What about the Ratio [20] of the same compound?
Answer: The Ratio was 0.193.

Question: And the IC50 [5]?
Answer: Its IC50 is greater than 133 µM.

Question: And the IC50 [6]?
Answer: Its IC50 is greater than 133 µM.

Question: What about the AUC at 12 h [21] of the same compound?
Answer: Its AUC at 12 h is 11.6 µM·h.
